Measurements as given in patent US20250170156A1, “TOLL-LIKE RECEPTOR LIGANDS” (INIMMUNE CORPORATION, priority 2018, published 2025).

Columns and labels:
mRAW264.7 cells = experiment: Induction of MIP-1β cytokine from mRAW264.7 cells (ELISA); format: cell-based; details: Mus musculus, 18 hours, read-out: mRaw MIP-1β EC50
Method: Induction of MIP-1β cytokine from mRAW264.7 cells. […] Treatments started at 20 μM concentration with a 5-fold serial dilution until 3.2768E-09 μM. Supernatants were harvested and analyzed for production of MIP-1β via ELISA (R& D Systems-cat #DY451).

hMM6 cells = experiment: Induction of MIP-1β cytokine from hMM6 cells (ELISA); format: cell-based; details: Homo sapiens, 18 hours
Method: Induction of […] cytokine from hMM6 cells. The compounds were next tested in the established MM6 potency assay measuring MIP-1β cytokine production as an output measure of compound potency. Human monocytic cell line, Mono-Mac-6 (hMM6) was obtained from DSMZ (Brunswick, Germany). […] Treatments started at a 100 µM concentration proceeded with a 16-point, 5-fold dilution series. Supernatants were harvested and analyzed for production of MIP-1β via ELISA (R&D systems, catalog #DY271).

primary hPBMCs [1] = experiment: Induction of RANTES from primary hPBMCs (ELISA); details: Homo sapiens
[2] = test system: influenza virus antigen A/Victoria/210/2009-H3N2; experiment: Vaccine adjuvant study, murine influenza virus vaccination model; format: in vivo, BALB/c mice; details: intramuscular, 0.1, 0.01 or 0.001 μg with 0.2 μg antigen, 14 days after single immunization, 2% glycine
Method: Vaccine adjuvant study. Compounds 2, 4, 5 and 7 were evaluated as vaccine adjuvant in a murine influenza virus vaccination model. 7-9 week old BALB/c mice (10 mice per group) were injected intramuscularly in a hind limb with the influenza virus antigen A/Victoria/210/2009-H3N2 (0.2 μg/mouse) with or without 0.1, 0.01 or 0.001 μg of compound 2, 4, 5 or 7 (formulated in 2% glycine). Fourteen days after a single immunization, animals were bled via the submandibular vein and serum was collected to assay for A/Victoria specific antibodies by ELISA assay (FIG. 7).

[3] = Stability of aqueous formulations by reverse-phase-HPLC; format: physicochemical
Method: Formulation. The salted compound was accurately weighed into depyrogenated glass vials, and the required volume of aqueous vehicle added to attain the desired concentration. Vials were placed in a sonication bath (sonication bath temperature≤45° C.) to assist solubility and reduce particle size to achieve sterile filtration without significant loss of compound. Once the solution appeared homogeneous, the particle size was periodically monitored by dynamic light scattering until the solution turned clear and the particle size was <200 mn, or the particle size no longer reduced with continued sonication. The formulation was filtered through a 0.22p PVDF membrane filter into a depyrogenated glass vial and the resulting solution quantitated by RP-HPLC.
Aqueous formulations of compounds 1, 2, 3, 4, 5 and 6 were aliquoted into small depyrogenated vials for stability evaluation at temperatures of 2°-8° C., 25° C., and 40° C. This mirrors ICH stability temperature guidelines, but humidity was not controlled. A vial was pulled for each time point/temperature and analyzed by reverse-phase-HPLC (FIGS. 9-14) according to the following schedule starting from 2 weeks to up to 12 months.

primary hPBMCs [4] = experiment: Induction of MIP-1β from primary hPBMCs (ELISA); details: Homo sapiens
hTLR4 = target: T1, hTLR4 (Homo sapiens, UniProt O00206+Q9Y6Y9); experiment: HEK hTLR4 NF-κB driven SEAP reporter assay (hTLR4 activation); format: cell-based; details: 18 hours
T1 construct: expressed in transfected cells; host or cells: HEK cells expressing hTLR4 and an NF-κB driven SEAP reporter
Method: hTLR4 activation. HEK hTLR4-expressing cells were treated with 100 μM concentration of test compound followed by a 5-fold dilution series. HEK hTLR4-expressing cells also contained an NF-κB driven SEAP reporter and were stimulated with the indicated concentration (FIG. 1A-1C) of the test compound for 18 hours followed by assessment of the cellular supernatant for SEAP by a Quantikine SEAP assay (InvivoGen). The SEAP assay was used to look at secretion of the NF-κB driven alkaline-phosphatase reporter gene in response to TLR4 activation by the compounds and results are interpreted both in terms of potency of the compounds to induce SEAP activation (i.e. potency where a lower EC50 indicates higher potency) and efficacy for receptor activation (i.e. maximal SEAP induction).

T1 sequence (O00206 24-839): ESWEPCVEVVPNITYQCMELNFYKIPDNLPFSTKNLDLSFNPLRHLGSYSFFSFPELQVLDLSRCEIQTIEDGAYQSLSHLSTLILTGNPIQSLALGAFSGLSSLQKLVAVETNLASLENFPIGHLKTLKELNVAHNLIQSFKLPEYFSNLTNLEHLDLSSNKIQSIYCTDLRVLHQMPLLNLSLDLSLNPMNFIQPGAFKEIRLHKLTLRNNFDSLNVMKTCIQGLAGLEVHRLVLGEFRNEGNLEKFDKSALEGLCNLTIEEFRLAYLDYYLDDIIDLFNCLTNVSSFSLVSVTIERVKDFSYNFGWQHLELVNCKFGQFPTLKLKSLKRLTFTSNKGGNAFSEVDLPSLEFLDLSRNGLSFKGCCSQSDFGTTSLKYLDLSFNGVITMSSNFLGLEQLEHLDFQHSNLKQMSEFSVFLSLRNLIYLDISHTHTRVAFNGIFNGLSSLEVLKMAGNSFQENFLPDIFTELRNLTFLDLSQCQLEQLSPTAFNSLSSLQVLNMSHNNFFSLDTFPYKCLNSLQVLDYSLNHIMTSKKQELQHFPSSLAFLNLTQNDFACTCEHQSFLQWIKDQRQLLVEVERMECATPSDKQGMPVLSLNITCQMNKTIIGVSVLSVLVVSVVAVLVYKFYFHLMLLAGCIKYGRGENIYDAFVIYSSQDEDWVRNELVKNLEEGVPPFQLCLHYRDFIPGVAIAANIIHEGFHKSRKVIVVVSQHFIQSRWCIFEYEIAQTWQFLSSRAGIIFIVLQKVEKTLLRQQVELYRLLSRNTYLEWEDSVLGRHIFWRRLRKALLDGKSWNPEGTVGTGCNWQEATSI
T1 sequence (Q9Y6Y9 17-160 limits assumed): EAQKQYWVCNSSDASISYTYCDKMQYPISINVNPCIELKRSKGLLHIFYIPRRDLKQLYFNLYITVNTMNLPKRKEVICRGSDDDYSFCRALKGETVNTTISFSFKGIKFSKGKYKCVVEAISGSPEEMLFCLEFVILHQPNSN

SMILES: CCCCCCCCCCC[C@H](CC(=O)NCCO[C@@H]1OC(CO)[C@@H](OS(=O)(=O)O)[C@H](NC(=O)C[C@@H](CCCCCCCCCCC)OC(=O)CCCCCCCCC)C1NC(=O)C[C@@H](CCCCCCCCCCC)OC(=O)CCCCCCCCC)OC(=O)CCCCCCCCC (stereo partly drawn) [Compound 2, 2-[(R)-3-decanoyloxytetradecanoylamino]ethyl 2,3-di-[(R)-3-decanoyloxytetradecanoylamino]-2,3-dideoxy-4-O-sulfoxy-β-D-allopyranoside]
- EC50 (mRAW264.7 cells): 0.0176 nM
- EC50 (hMM6 cells): 5.89 nM
- EC50 (primary hPBMCs [1]; read-out: hPBMCs EC50 RANTES, Table 3a, Average of Donors 10, 5, 2): 0.243 nM
- EC50 (primary hPBMCs [1]; read-out: hPBMCs EC50 RANTES, Table 3a, Donor 2): 0.38 nM
- EC50 (primary hPBMCs [1]; read-out: hPBMCs EC50 RANTES, Table 3a, Donor 5): 0.285 nM
- EC50 (primary hPBMCs [1]; read-out: hPBMCs EC50 RANTES, Table 3a, Donor 10): 0.0642 nM
- EC50 (primary hPBMCs [1]; read-out: hPBMCs EC50 RANTES, Table 4b, Average of Donors 22, 5): 0.423 nM
- EC50 (primary hPBMCs [1]; read-out: hPBMCs EC50 RANTES, Table 4b, Donor 5): 0.238 nM
- EC50 (primary hPBMCs [1]; read-out: hPBMCs EC50 RANTES, Table 4b, Donor 22): 0.609 nM
- adjuvant effect on flu-specific IgG2a antibody titers compared to antigen alone [2]: dose dependent adjuvant effect
- time with no degradation ([3]; 25° C., formulated in 2% glycine (FIG. 10A)): ≥ 12 months
- degradation ([3]; after 12 months at 40° C., formulated in 2% glycerol (FIG. 10B)): less than 10%
- EC50 (primary hPBMCs [4]; read-out: hPBMCs EC50 MIP-1β, Table 3a, Average of Donors 10, 5, 2): 0.0963 nM
- EC50 (primary hPBMCs [4]; read-out: hPBMCs EC50 MIP-1β, Table 3a, Donor 2): 0.0755 nM
- EC50 (primary hPBMCs [4]; read-out: hPBMCs EC50 MIP-1β, Table 3a, Donor 5): 0.166 nM
- EC50 (primary hPBMCs [4]; read-out: hPBMCs EC50 MIP-1β, Table 3a, Donor 10): 0.0475 nM
- EC50 (primary hPBMCs [4]; read-out: hPBMCs EC50 MIP-1β, Table 4b, Average of Donors 22, 5): 0.453 nM
- EC50 (primary hPBMCs [4]; read-out: hPBMCs EC50 MIP-1β, Table 4b, Donor 5): 0.119 nM
- EC50 (primary hPBMCs [4]; read-out: hPBMCs EC50 MIP-1β, Table 4b, Donor 22): 0.786 nM
- EC50 (hTLR4; Table 1a): 64 nM
- EC50 (hTLR4; Table 1b): 41 nM
